Results from patent US20080293759A1, “Method for Treating Cancer Based on the Modulation of Calcineurin” (Centre National De La Recherche, priority 2005, published 2008).

How the values were obtained:
[1] = test system: NFAT2; assay: ICN1 leukemic cells in culture with CsA or ionomycin, NFAT2 western blot; format: cell-based, mouse; conditions: ICN1 leukemic cells maintained in culture for 60 minutes
Protocol: Phosphorylated and de-phosphorylated isoforms are indicated by coloured arrows.
Leukemia-derived primary cells and leukemia cell lines (TEL-JAK2, ICN1 and ERP15-14) were maintained in RPMI 1640 supplemented with 10% foetal calf serum, 100 U/ml penicillin, 100 μg/ml streptomycin, 2 mM glutamine (all from Life Technologies) and […] 2-βmercaptoethanol (Sigma).
Total cellular extracts prepared from cells obtained directly from diseased animals or control littermates or harvested at the indicated times following culture, were resolved by SDS-PAGE and subjected to immunoblot analysis with the indicated antibody (Ab). The NFAT1(sc-7296), NFAT2 (sc-7294), NFAT4 (sc-8321), STAT5 (C-17; sc-835) antibodies were purchased from Santa Cruz Biotechnology. The phosphotyrosine-STAT5 antibody (05-495) was purchased from Upstate Biotechnology. The pan-NFAT Ab (796) was kindly provided by Dr. Nancy Rice.

[2] = test system: NFATc1, NFATc2, NFATc3; assay: Thymocytes ex vivo with CsA or ionomycin, NFAT western blot; format: cell-based, mouse; conditions: unstimulated thymocytes ex vivo, 1 μg/ml, 60 minutes

Compound: C[C@H](CCC(=O)O)C[C@H](C)C[C@H](C)C(=O)/C=C(\O)[C@H](C)C[C@H](C)C/C=C/[C@@H](C)[C@@H](O)[C@@H](C)[C@@H](O)C[C@@H]1CC[C@@](C)([C@H]2CC[C@@](C)([C@@H](C)O)O2)O1 [ionomycin]
- NFAT2 isoform migration (phosphorylation) [1]: indistinguishable from that observed in ICN1 non-treated leukemic cells
- NFATc1, NFATc2, NFATc3 phosphorylation [2]: fully dephosphorylated
